Test results published in the CheMixHub viscosity set.
Where “and” joins values, the source holds several entries; their conditions need not be identical. Equal values may be shown once. ± gives the uncertainty stated by the source.

Experiment: xn = mol fraction of the nth substance listed

C1COCCO1 + O
Details	viscosity
293.15 K, 101.3 kPa, x2 = 0.0459	1.306 ± 0.021 mPa·s
293.15 K, 101.3 kPa, x2 = 0.09407	1.32 ± 0.021 mPa·s
293.15 K, 101.3 kPa, x2 = 0.2053	1.399 ± 0.023 mPa·s and 1.4 ± 0.023 mPa·s
293.15 K, 101.3 kPa, x2 = 0.3758	1.621 ± 0.026 mPa·s and 1.619 ± 0.026 mPa·s
293.15 K, 101.3 kPa, x2 = 0.5701	1.982 ± 0.032 mPa·s and 1.981 ± 0.032 mPa·s
293.15 K, 101.3 kPa, x2 = 0.7952	2.264 ± 0.036 mPa·s and 2.263 ± 0.036 mPa·s
293.15 K, 101.3 kPa, x2 = 0.8661	2.06 ± 0.033 mPa·s
293.15 K, 101.3 kPa, x2 = 0.9391	1.577 ± 0.025 mPa·s and 1.576 ± 0.025 mPa·s
293.15 K, 101.3 kPa, x2 = 0.9742	1.258 ± 0.02 mPa·s and 1.259 ± 0.02 mPa·s
293.15 K, 101.33 kPa, x1 = 0.0222	1.221 ± 0.012 mPa·s
293.15 K, 101.33 kPa, x1 = 0.0486	1.464 ± 0.015 mPa·s
293.15 K, 101.33 kPa, x1 = 0.0806	1.728 ± 0.017 mPa·s
293.15 K, 101.33 kPa, x1 = 0.12	1.984 ± 0.02 mPa·s
293.15 K, 101.33 kPa, x1 = 0.143	2.092 ± 0.021 mPa·s
293.15 K, 101.33 kPa, x1 = 0.17	2.183 ± 0.022 mPa·s
293.15 K, 101.33 kPa, x1 = 0.2	2.246 ± 0.022 mPa·s
293.15 K, 101.33 kPa, x1 = 0.235	2.268 ± 0.023 mPa·s
293.15 K, 101.33 kPa, x1 = 0.25	2.266 ± 0.023 mPa·s
293.15 K, 101.33 kPa, x1 = 0.275	2.252 ± 0.023 mPa·s
293.15 K, 101.33 kPa, x1 = 0.323	2.185 ± 0.022 mPa·s
293.15 K, 101.33 kPa, x1 = 0.334	2.151 ± 0.022 mPa·s
293.15 K, 101.33 kPa, x1 = 0.38	2.072 ± 0.021 mPa·s
293.15 K, 101.33 kPa, x1 = 0.45	1.927 ± 0.019 mPa·s
293.15 K, 101.33 kPa, x1 = 0.5	1.817 ± 0.018 mPa·s
293.15 K, 101.33 kPa, x1 = 0.537	1.758 ± 0.018 mPa·s
293.15 K, 101.33 kPa, x1 = 0.648	1.569 ± 0.016 mPa·s
293.15 K, 101.33 kPa, x1 = 0.716	1.478 ± 0.015 mPa·s
293.15 K, 101.33 kPa, x1 = 0.795	1.396 ± 0.014 mPa·s
293.15 K, 101.33 kPa, x1 = 0.846	1.349 ± 0.013 mPa·s
293.15 K, 101.33 kPa, x1 = 0.918	1.312 ± 0.013 mPa·s
298 K, 101 kPa, x2 = 0.5236	1.647 ± 0.015 mPa·s
298 K, 101 kPa, x2 = 0.6752	1.886 ± 0.015 mPa·s
298 K, 101 kPa, x2 = 0.7636	1.965 ± 0.014 mPa·s
298 K, 101 kPa, x2 = 0.88	1.701 ± 0.0094 mPa·s
298 K, 101 kPa, x2 = 0.9514	1.271 ± 0.0049 mPa·s
298.15 K, 101 kPa, x1 = 0.141	1.784 ± 0.023 mPa·s
298.15 K, 101 kPa, x1 = 0.271	1.923 ± 0.025 mPa·s
298.15 K, 101.3 kPa, x2 = 0.0459	1.196 ± 0.019 mPa·s
298.15 K, 101.3 kPa, x2 = 0.09407	1.207 ± 0.019 mPa·s
298.15 K, 101.3 kPa, x2 = 0.2053	1.275 ± 0.021 mPa·s and 1.274 ± 0.021 mPa·s
298.15 K, 101.3 kPa, x2 = 0.3758	1.458 ± 0.024 mPa·s
298.15 K, 101.3 kPa, x2 = 0.5701	1.761 ± 0.028 mPa·s
298.15 K, 101.3 kPa, x2 = 0.7952	1.976 ± 0.032 mPa·s and 1.975 ± 0.032 mPa·s
298.15 K, 101.3 kPa, x2 = 0.8661	1.796 ± 0.029 mPa·s
298.15 K, 101.3 kPa, x2 = 0.9391	1.38 ± 0.022 mPa·s and 1.381 ± 0.022 mPa·s
298.15 K, 101.3 kPa, x2 = 0.9742	1.109 ± 0.018 mPa·s and 1.108 ± 0.018 mPa·s
298.15 K, 101.33 kPa, x1 = 0.0222	1.076 ± 0.011 mPa·s
298.15 K, 101.33 kPa, x1 = 0.0486	1.283 ± 0.013 mPa·s
298.15 K, 101.33 kPa, x1 = 0.0806	1.508 ± 0.015 mPa·s
298.15 K, 101.33 kPa, x1 = 0.12	1.728 ± 0.017 mPa·s
298.15 K, 101.33 kPa, x1 = 0.143	1.822 ± 0.018 mPa·s
298.15 K, 101.33 kPa, x1 = 0.17	1.901 ± 0.019 mPa·s
298.15 K, 101.33 kPa, x1 = 0.2	1.957 ± 0.02 mPa·s
298.15 K, 101.33 kPa, x1 = 0.235	1.98 ± 0.02 mPa·s
298.15 K, 101.33 kPa, x1 = 0.25	1.983 ± 0.02 mPa·s
298.15 K, 101.33 kPa, x1 = 0.275	1.96 ± 0.02 mPa·s
298.15 K, 101.33 kPa, x1 = 0.323	1.917 ± 0.019 mPa·s
298.15 K, 101.33 kPa, x1 = 0.334	1.894 ± 0.019 mPa·s
298.15 K, 101.33 kPa, x1 = 0.38	1.831 ± 0.018 mPa·s
298.15 K, 101.33 kPa, x1 = 0.45	1.715 ± 0.017 mPa·s
298.15 K, 101.33 kPa, x1 = 0.5	1.623 ± 0.016 mPa·s
298.15 K, 101.33 kPa, x1 = 0.537	1.572 ± 0.016 mPa·s
298.15 K, 101.33 kPa, x1 = 0.648	1.414 ± 0.014 mPa·s
298.15 K, 101.33 kPa, x1 = 0.716	1.336 ± 0.013 mPa·s
298.15 K, 101.33 kPa, x1 = 0.795	1.274 ± 0.013 mPa·s
298.15 K, 101.33 kPa, x1 = 0.846	1.23 ± 0.012 mPa·s
298.15 K, 101.33 kPa, x1 = 0.918	1.2 ± 0.012 mPa·s
298.15 K, 101.33 kPa, x2 = 0.1129	1.222 ± 0.03 mPa·s
298.15 K, 101.33 kPa, x2 = 0.21	1.291 ± 0.031 mPa·s
298.15 K, 101.33 kPa, x2 = 0.3108	1.384 ± 0.033 mPa·s
298.15 K, 101.33 kPa, x2 = 0.4096	1.51 ± 0.036 mPa·s
298.15 K, 101.33 kPa, x2 = 0.4986	1.629 ± 0.038 mPa·s
298.15 K, 101.33 kPa, x2 = 0.6059	1.797 ± 0.042 mPa·s
298.15 K, 101.33 kPa, x2 = 0.6983	1.913 ± 0.044 mPa·s
298.15 K, 101.33 kPa, x2 = 0.8288	1.857 ± 0.043 mPa·s
298.15 K, 101.33 kPa, x2 = 0.9021	1.57 ± 0.037 mPa·s
303.1 K, 101 kPa, x2 = 0.228	1.147 ± 0.017 mPa·s
303.1 K, 101 kPa, x2 = 0.2741	1.174 ± 0.018 mPa·s
303.1 K, 101 kPa, x2 = 0.4187	1.261 ± 0.019 mPa·s
303.1 K, 101 kPa, x2 = 0.7038	1.709 ± 0.025 mPa·s
303.1 K, 101 kPa, x2 = 0.8099	1.733 ± 0.025 mPa·s
303.1 K, 101 kPa, x2 = 0.8346	1.661 ± 0.024 mPa·s
303.1 K, 101 kPa, x2 = 0.8791	1.543 ± 0.023 mPa·s
303.1 K, 101 kPa, x2 = 0.9194	1.35 ± 0.02 mPa·s
303.1 K, 101 kPa, x2 = 0.9508	1.162 ± 0.018 mPa·s
303.1 K, 101 kPa, x2 = 0.9786	0.968 ± 0.015 mPa·s
303.15 K, 101.3 kPa, x2 = 0.0459	1.098 ± 0.018 mPa·s
303.15 K, 101.3 kPa, x2 = 0.09407	1.108 ± 0.018 mPa·s and 1.107 ± 0.018 mPa·s
